Assay: Acid dissociation constant (pKa) by acid-base titration
Assay type: physicochemical
Conditions: purified water; titration with 0.1 N perchloric acid-acetic acid solution, 25±2° C.
Protocol: In the present description, the acid dissociation constant of the amine compound (a) is a value obtained by the following measurement method based on an acid-base titration method. • (1) Dissolving 0.2 g of the amine compound (a) in 30 mL of purified water. • (2) Calculating the acid dissociation constant (pKa) by titrating the solution obtained in the above (1) with 0.1 N perchloric acid-acetic acid solution using an automatic potentiometric titrator (for example, AT-610 produced by Kyoto Electronics Manufacturing Co., Ltd.).
Still, let a temperature at a time of measurement be 25±2° C.
The acid dissociation constant of the amine compound (a) was determined by the following method. • (1) Dissolving 0.2 g of the amine compound (a) in 30 mL of the purified water. • (2) Calculating the acid dissociation constant (pKa) by titrating the solution obtained in the above (1) with the 0.1 N perchloric acid-acetic acid solution using the automatic potentiometric titrator (AT-610 produced by Kyoto Electronics Manufacturing Co., Ltd.).
Still, let the temperature at the time of measurement be 25±2° C.

pKa: 10.8
SMILES: NCC1CCCC(CN)C1 (stereo not shown) [1,3-BAC, 1,3-bis(aminomethyl)cyclohexane]

Reference: patent US20240198287A1, “CARBON DIOXIDE RECOVERING METHOD AND CARBON DIOXIDE RECOVERING DEVICE” (MITSUBISHI GAS CHEMICAL COMPANY, INC., priority 2021, published 2024)
